Here are results for 17 compounds from publication PMC6522510 (Nature Communications, 2019).

For assay [1], the system named is U937. As to the kind of experiment: Secondary dose-response HTS, Cell Titer Glo. It counts as cell-based, human. The following applies: secondary high-throughput screen, U937; for EC50: Homo sapiens, U-937, read-out: average effective concentration, U937. A general note: In ATP-based viability assays light output follows the ATP content of the culture.
Assay [2] has as its system MOLM-13. Briefly: cells. The arrangement: species or system AML cell lines (8); Secondary HTS, 10-point dose-response in triplicate, Cell Titer Glo viability, four-parameter fit EC50. The following applies: Homo sapiens, MOLM-13, 72 h, read-out: MOLM-13.
The subject of assay [3] is CHRF288-11. Briefly: Secondary dose-response HTS, Cell Titer Glo. It counts as cell-based, human. The following applies: secondary high-throughput screen, CHRF288-11; for EC50: Homo sapiens, HTS, read-out: average effective concentration, CHRF288-11.
In assay [4] the test system is M07e. As to the kind of experiment: Secondary dose-response HTS, Cell Titer Glo. It counts as cell-based, human. The following applies: secondary high-throughput screen; for EC50: Homo sapiens, M-07e, read-out: average effective concentration, M07e.
Assay [5] has as its system ML2. As to the kind of experiment: Secondary dose-response HTS, Cell Titer Glo. It counts as cell-based, human. The following applies: secondary high-throughput screen, ML-2, read-out: average effective concentration, ML-2.
Assay [6] concerns MV4-11. As to the kind of experiment: cells. The following applies: Homo sapiens, MV4-11, 72 h, read-out: MV4-11. The arrangement: species or system AML cell lines (8); Secondary HTS, 10-point dose-response in triplicate, Cell Titer Glo viability, four-parameter fit EC50.
The test system of assay [7] is CMS. As to the kind of experiment: Secondary dose-response HTS, Cell Titer Glo. It counts as cell-based, human. The following applies: for EC50: Homo sapiens, HTS, read-out: average effective concentration, CMS.
Assay [8] has as its system CMK. As to the kind of experiment: Secondary dose-response HTS, Cell Titer Glo. The following applies: CMK; for EC50: Homo sapiens, read-out: average effective concentration, CMK. It counts as cell-based, human.
Assay [9] has as its system MV4-11. As to the kind of experiment: Secondary dose-response HTS, Cell Titer Glo. The following applies: secondary high-throughput screen, MV4-11; for EC50: Homo sapiens, read-out: average effective concentration, MV4-11. It counts as cell-based, human.
Assay [10] deals with MOLM-13. As to the kind of experiment: Secondary dose-response HTS, Cell Titer Glo. It counts as cell-based, human. The following applies: secondary high-throughput screen, MOLM-13; for EC50: Homo sapiens, read-out: average effective concentration, MOLM-13.
In assay [11] the test system is U937. As to the kind of experiment: cells. The arrangement: species or system AML cell lines (8); Secondary HTS, 10-point dose-response in triplicate, Cell Titer Glo viability, four-parameter fit EC50. The following applies: Homo sapiens, U-937, 72 h, read-out: U937.
Assay [12] concerns CHRF288-11. Briefly: cells. The arrangement: species or system AML cell lines (8); Secondary HTS, 10-point dose-response in triplicate, Cell Titer Glo viability, four-parameter fit EC50. The following applies: 72 h, read-out: CHRF288-11.
Setting [13] is: secondary high-throughput screen, CMS.
Setting [14] is: secondary high-throughput screen.

Like-named read-outs stand apart in the source and are kept apart here.

For the compound `NS(=O)(=O)OC[C@@H]1C[C@@H](n2ccc3c(N[C@H]4CCc5ccccc54)ncnc32)C[C@@H]1O` [MLN 4924], the EC50 in assay [1] is 1 nM; in [2] it was above 10 µM; in assay [3], 18 nM; in assay [4] (M07e), 140 nM; in assay [5] (Homo sapiens), 1 nM; in assay [6], above 10 µM. Further, the figures for the EC50 in assay [7] and in assay [8] were 100 nM and 1 nM, respectively.

As for `Cc1ccc2nc(NCCN)c3ncc(C)n3c2c1` [BMS-345541], the EC50 in assay [1] is 2300 nM; in assay [2], above 10 µM; in [3], 3800 nM; in [4] ([…]) it was 6100 nM; in [5] (Homo sapiens) it was 2200 nM; in [6], above 10 µM. In addition, the EC50 in assay [7] (setting [13]) worked out at 5900 nM; in [8] (setting [14]), 4700 nM.

With `Nc1ccccc1NC(=O)c1ccc(CNC(=O)OCc2cccnc2)cc1` [ENTINOSTAT], the EC50 in assay [1] is 5600 nM; in assay [2], above 10 µM; in assay [3], 4100 nM; in assay [4] (M07e), 1000 nM; in assay [5] (Homo sapiens) it was 6200 nM; in [6], above 10 µM. Moreover, the EC50 in assay [7] (setting [13]) stood at 760 nM; in assay [8] (setting [14]), 110 nM.

Take `O=c1[nH]c(=O)n([C@H]2C[C@H](O)[C@@H](CO)O2)cc1F` [FLOXURIDINE]: the EC50 in [9] stood at 130 nM; in assay [3], 67 nM; in assay [4] (M07e), 8200 nM; in [5] (Homo sapiens) it was 21 nM; in [7] (setting [13]) it was 7900 nM; in assay [8] (setting [14]) it was 980 nM. The EC50 in assay [10] was 23 nM; in [11], above 10 µM.

With `CCN(CC)CCCC(C)Nc1c2ccc(Cl)cc2nc2ccc(OC)cc12` (stereo not shown) [QUINACRINE], the EC50 in assay [1] is 3900 nM; in [9], 3800 nM; in assay [4] (M07e), 7700 nM; in assay [5] (Homo sapiens), above 10000 nM; in assay [7] (setting [13]), 5500 nM; in assay [8] (setting [14]), 7700 nM. For the same compound, the EC50 in assay [10] is 2900 nM; in assay [12], above 10 µM.

Regarding `Oc1ccc(C2=Cc3ccc(O)cc3OC2)cc1` [IDRONOXIL], the EC50 in [1] was 1900 nM; in assay [2], above 10 µM; in assay [3], 180 nM; in assay [4] ([…]) it was 1300 nM; in [5] (Homo sapiens) it was 130 nM; in [6], above 10 µM. The EC50 in assay [7] (setting [13]) worked out at 440 nM; in assay [8] (setting [14]), 88 nM.

With `Nc1ccccc1NC(=O)c1ccc(CNc2nccc(-c3cccnc3)n2)cc1` [MOCETINOSTAT], the EC50 was 1100 nM in [1]; above 10 µM in [2]; 170 nM in assay [3]; 140 nM in assay [4] (M07e); 410 nM in assay [5] (Homo sapiens); above 10 µM in [6]. Moreover, the results for the EC50 in assay [7] (setting [13]) and in [8] (setting [14]) were 120 nM and 39 nM, respectively.

`COC(=O)[C@]12CCC(C)(C)C[C@H]1[C@H]1C(=O)C=C3[C@@]4(C)C=C(C#N)C(=O)C(C)(C)[C@@H]4CC[C@@]3(C)[C@]1(C)CC2` [BARDOXOLONE METHYL]: the EC50 in [1] was 1000 nM; in [2], above 10 µM; in assay [3] it was 940 nM; in assay [4] (M07e) it was 4000 nM; in assay [5] (Homo sapiens), 880 nM; in assay [6] it was above 10 µM. Moreover, the EC50 in [7] (setting [13]) and in assay [8] (setting [14]) was 1100 nM throughout.

As for `CCCCc1nc2cc(/C=C/C(=O)NO)ccc2n1CCN(CC)CC` [PRACINOSTAT], the EC50 is 220 nM in assay [1]; above 10 µM in [2]; 250 nM in assay [3]; 130 nM in assay [4] (M07e); 330 nM in assay [5] (Homo sapiens); above 10 µM in assay [6]. Moreover, the figures for the EC50 in assay [7] and in assay [8] were 140 nM and 70 nM, respectively.

In the case of `CCN(CC)Cc1ccc2cc(COC(=O)Nc3ccc(C(=O)NO)cc3)ccc2c1` [GIVINOSTAT], the EC50 in assay [1] is 55 nM; in assay [2], above 10 µM; in assay [3] it was 61 nM; in assay [4] (M07e), 31 nM; in [5] (Homo sapiens), 70 nM; in assay [6], above 10 µM. Besides, the EC50 in [7] (setting [13]) worked out at 86 nM; in assay [8] (setting [14]), 3.7 nM.

Turning to `C=C1C(=O)O[C@H]2[C@H]1CC/C(C)=C/CC[C@@]1(C)O[C@@H]21` [PARTHENOLIDE], the EC50 was 2100 nM in [1]; above 10 µM in [2]; 1600 nM in assay [3]; 10000 nM in assay [4] (M07e); 920 nM in [5] (Homo sapiens); above 10 µM in [6]. Moreover, the EC50 came to 1200 nM in assay [7] and 2100 nM in [8].

As for `CC(C)C[C@H](NC(=O)[C@@H](NC(=O)c1cccc(-c2ccccc2)n1)[C@@H](C)O)B(O)O` [DELANZOMIB], the EC50 in [1] is 2.8 nM; in [2], 0.0021 µM; in assay [3], 2.7 nM; in assay [4] (M07e), 1 nM; in assay [5] (Homo sapiens), 1 nM; in assay [6], above 10 µM. Also, the EC50 in assay [7] (setting [13]) came to 1 nM; in assay [8] (setting [14]), 1.5 nM.

On to `CC(C)[C@H](C(=O)Nc1ccc(C(=O)NO)cc1)c1ccccc1` [(S)-HDAC-42], for which the EC50 in assay [1] was 220 nM; in assay [2] it was above 10 µM; in assay [3], 260 nM; in assay [4] (M07e), 160 nM; in [5] (Homo sapiens), 330 nM; in assay [6] it was above 10 µM. Also, the values for the EC50 in assay [7] and in assay [8] were 220 nM and 38 nM, respectively.

`O=C1NC(=O)[C@@H](c2cn3c4c(cccc24)CCC3)[C@@H]1c1c[nH]c2ccccc12` [TIVANTINIB]: the EC50 in [1] was 61 nM; in assay [2] it was above 10 µM; in assay [3] it was 3600 nM; in assay [4] (M07e), 770 nM; in [5] (Homo sapiens), 55 nM; in [6], above 10 µM. In addition, the results for the EC50 in assay [7] (setting [13]) and in [8] (setting [14]) were 1500 nM and 75 nM, respectively.

With `CN(C)Cc1c(C(=O)NCCOc2ccc(C(=O)NO)cc2)oc2ccccc12` [ABEXINOSTAT], the EC50 in [1] is 30 nM; in [2], above 10 µM; in assay [3] it was 37 nM; in assay [4] (M07e) it was 26 nM; in [5] (Homo sapiens), 93 nM; in assay [6], above 10 µM. Also, the EC50 in [7] (setting [13]) came out at 34 nM; in [8] (setting [14]), 12 nM.

For `C[n+]1c2cc(N)ccc2cc2ccc(N)cc21`, the “average effective concentration, U937” value in [1] is “Inactive”. For the same compound, in assay [9], the “average effective concentration, MV4-11” value is listed as “Inactive”. Besides, the “average effective concentration, CHRF288-11” value in [3] is on record as “Inactive”. The “average effective concentration, M07e” value in assay [4] (M07e) was “Inactive”. For the same compound, the EC50 in [5] was 7700 nM. Moreover, the “average effective concentration, CMS” value in assay [7] (setting [13]) is listed as “Inactive”. The “average effective concentration, CMK” value in [8] (setting [14]) is “Inactive”. For the same compound, the “average effective concentration, MOLM-13” value in assay [10] is “Inactive”.

On to `CCN(CC)CCNC(=O)c1c(C)[nH]c(/C=C2\C(=O)Nc3ccc(F)cc32)c1C` [SUNITINIB], for which the EC50 was 270 nM in assay [1]; 34 nM in [9]; 490 nM in assay [3]; 460 nM in assay [4] (M07e); 270 nM in assay [5] (Homo sapiens); above 10000 nM in assay [7] (setting [13]). Besides, the figures for the EC50 in [8] (setting [14]) and in [10] were 330 nM and 19 nM, respectively.
